In ChEMBL document CHEMBL1153519, “Characterization of novel selective H1-antihistamines for clinical evaluation in the treatment of insomnia” (J Med Chem, 2009):
Activity calls are given as the source filed them. The rule behind the calls is not given here.

Assays:
[1] = test system: Rattus norvegicus; experiment: Increase in REM sleep in CD IGS rat model of insomnia at 60 mg/kg, po after 4 hrs by EEG/EMG study relative to vehicle control; type: functional
[2] = molecular target: Cytochrome P450 2D6 (Homo sapiens, UniProt P10635); experiment: Inhibition of recombinant CYP2D6 in presence of NADPH generating system
Sequence of Cytochrome P450 2D6 (P10635 whole entry): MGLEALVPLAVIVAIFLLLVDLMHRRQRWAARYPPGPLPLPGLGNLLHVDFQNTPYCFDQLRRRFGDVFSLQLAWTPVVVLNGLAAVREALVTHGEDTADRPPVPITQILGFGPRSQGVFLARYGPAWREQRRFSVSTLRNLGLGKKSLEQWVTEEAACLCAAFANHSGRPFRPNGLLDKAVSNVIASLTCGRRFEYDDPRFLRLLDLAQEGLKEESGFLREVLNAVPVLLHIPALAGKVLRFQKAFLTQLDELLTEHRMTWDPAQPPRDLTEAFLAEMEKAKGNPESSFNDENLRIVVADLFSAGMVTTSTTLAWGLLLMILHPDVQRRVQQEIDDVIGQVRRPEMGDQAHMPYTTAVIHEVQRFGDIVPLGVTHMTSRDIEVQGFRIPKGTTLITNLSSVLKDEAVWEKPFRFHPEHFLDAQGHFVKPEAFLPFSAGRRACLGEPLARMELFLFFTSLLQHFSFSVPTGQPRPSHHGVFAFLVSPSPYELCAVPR

[3] = molecular target: Histamine H3 receptor (Homo sapiens) (UniProt Q9Y5N1); experiment: Displacement of [3H]R-alpha-methylhistamine from human histamine H3 receptor expressed in CHO Flp-In cells by liquid scintillation counting; type: cell-based
Sequence of Histamine H3 receptor (Homo sapiens) (Q9Y5N1 whole entry): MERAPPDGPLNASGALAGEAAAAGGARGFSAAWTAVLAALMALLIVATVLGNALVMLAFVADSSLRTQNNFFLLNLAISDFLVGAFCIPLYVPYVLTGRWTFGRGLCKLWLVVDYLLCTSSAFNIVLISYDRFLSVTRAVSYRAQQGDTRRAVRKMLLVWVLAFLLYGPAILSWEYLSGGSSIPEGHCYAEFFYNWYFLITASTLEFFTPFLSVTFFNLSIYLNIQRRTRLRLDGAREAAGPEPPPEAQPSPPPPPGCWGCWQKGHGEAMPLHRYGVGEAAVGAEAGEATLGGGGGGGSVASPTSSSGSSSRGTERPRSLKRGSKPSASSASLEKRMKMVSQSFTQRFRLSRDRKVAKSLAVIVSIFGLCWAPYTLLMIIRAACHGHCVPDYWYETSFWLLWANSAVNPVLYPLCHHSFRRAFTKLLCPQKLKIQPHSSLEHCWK

[4] = molecular target: Cytochrome P450 3A4 (Homo sapiens, UniProt P08684); experiment: Inhibition of recombinant CYP3A4 in presence of NADPH generating system; type: ADME; settings: recombinant enzyme
Sequence of Cytochrome P450 3A4 (P08684 whole entry): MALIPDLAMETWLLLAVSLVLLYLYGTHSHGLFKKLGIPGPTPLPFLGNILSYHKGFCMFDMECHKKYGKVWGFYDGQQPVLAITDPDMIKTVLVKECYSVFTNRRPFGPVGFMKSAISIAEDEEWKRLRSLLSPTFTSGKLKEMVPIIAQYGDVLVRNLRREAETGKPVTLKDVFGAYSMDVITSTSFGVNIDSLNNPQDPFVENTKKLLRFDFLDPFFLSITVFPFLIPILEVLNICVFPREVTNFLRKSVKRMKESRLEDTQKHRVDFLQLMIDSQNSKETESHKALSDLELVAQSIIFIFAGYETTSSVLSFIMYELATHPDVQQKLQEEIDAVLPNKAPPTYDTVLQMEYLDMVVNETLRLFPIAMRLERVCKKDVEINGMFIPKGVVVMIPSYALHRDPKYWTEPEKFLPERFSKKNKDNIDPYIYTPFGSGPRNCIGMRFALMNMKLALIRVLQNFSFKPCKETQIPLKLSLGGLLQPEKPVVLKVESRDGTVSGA

[5] = molecular target: Histamine H1 receptor (Homo sapiens, UniProt P35367); experiment: Displacement of [3H]pyrilamine from human histamine H1 receptor expressed in CHO Flp-In cells by liquid scintillation counting; type: cell-based
Sequence of Histamine H1 receptor (P35367 whole entry): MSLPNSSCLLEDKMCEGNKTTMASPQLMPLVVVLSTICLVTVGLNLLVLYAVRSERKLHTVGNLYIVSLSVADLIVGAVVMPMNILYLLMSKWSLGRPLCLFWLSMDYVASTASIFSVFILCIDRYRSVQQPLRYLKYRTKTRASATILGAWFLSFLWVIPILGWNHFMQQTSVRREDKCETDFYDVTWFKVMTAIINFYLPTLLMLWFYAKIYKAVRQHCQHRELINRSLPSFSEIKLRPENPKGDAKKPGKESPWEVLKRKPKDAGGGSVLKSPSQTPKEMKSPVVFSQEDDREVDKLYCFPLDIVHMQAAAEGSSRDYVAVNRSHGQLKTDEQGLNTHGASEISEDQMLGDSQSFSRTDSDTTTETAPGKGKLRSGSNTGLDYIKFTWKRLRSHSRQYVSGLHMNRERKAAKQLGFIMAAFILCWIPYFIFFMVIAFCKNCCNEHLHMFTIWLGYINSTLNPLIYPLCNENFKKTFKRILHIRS

[6] = test system: Rattus norvegicus; experiment: Increase in NREM sleep in CD IGS rat model of insomnia at 60 mg/kg, po after 4 hrs by EEG/EMG study relative to vehicle control; type: functional
[7] = molecular target: T1, Muscarinic acetylcholine receptor M1 (Homo sapiens, UniProt P11229); experiment: Displacement of [3H]N-methylscopolamine from human muscarinic M1 receptor expressed in CHO Flp-In cells by liquid scintillation counting; type: cell-based
T1 sequence (P11229 whole entry): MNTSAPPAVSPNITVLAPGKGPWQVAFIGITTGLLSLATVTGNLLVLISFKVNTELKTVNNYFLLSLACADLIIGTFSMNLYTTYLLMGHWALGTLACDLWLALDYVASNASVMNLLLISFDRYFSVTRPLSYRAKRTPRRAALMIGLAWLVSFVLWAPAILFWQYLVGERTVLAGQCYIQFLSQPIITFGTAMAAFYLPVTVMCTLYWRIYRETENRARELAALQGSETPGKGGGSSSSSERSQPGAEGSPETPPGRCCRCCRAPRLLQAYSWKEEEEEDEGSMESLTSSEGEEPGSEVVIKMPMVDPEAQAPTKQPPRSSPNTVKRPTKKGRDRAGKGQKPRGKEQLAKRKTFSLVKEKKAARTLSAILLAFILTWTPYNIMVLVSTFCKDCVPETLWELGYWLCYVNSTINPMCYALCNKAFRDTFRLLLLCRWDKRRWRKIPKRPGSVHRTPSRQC

[8] = test system: Rattus norvegicus; experiment: Effect on sleep-awake pattern in CD IGS rat model of insomnia assessed as latency to 20 secs REM sleep at 60 mg/kg, po by EEG/EMG study relative to vehicle control; type: functional
[9] = in vitro; settings: human, liver microsomes
[10] = molecular target: Voltage-gated inwardly rectifying potassium channel KCNH2 (Homo sapiens, UniProt Q12809); experiment: Inhibition of human ERG expressed in HEK293 cells by patch-clamp technique
Sequence of Voltage-gated inwardly rectifying potassium channel KCNH2 (Q12809 whole entry): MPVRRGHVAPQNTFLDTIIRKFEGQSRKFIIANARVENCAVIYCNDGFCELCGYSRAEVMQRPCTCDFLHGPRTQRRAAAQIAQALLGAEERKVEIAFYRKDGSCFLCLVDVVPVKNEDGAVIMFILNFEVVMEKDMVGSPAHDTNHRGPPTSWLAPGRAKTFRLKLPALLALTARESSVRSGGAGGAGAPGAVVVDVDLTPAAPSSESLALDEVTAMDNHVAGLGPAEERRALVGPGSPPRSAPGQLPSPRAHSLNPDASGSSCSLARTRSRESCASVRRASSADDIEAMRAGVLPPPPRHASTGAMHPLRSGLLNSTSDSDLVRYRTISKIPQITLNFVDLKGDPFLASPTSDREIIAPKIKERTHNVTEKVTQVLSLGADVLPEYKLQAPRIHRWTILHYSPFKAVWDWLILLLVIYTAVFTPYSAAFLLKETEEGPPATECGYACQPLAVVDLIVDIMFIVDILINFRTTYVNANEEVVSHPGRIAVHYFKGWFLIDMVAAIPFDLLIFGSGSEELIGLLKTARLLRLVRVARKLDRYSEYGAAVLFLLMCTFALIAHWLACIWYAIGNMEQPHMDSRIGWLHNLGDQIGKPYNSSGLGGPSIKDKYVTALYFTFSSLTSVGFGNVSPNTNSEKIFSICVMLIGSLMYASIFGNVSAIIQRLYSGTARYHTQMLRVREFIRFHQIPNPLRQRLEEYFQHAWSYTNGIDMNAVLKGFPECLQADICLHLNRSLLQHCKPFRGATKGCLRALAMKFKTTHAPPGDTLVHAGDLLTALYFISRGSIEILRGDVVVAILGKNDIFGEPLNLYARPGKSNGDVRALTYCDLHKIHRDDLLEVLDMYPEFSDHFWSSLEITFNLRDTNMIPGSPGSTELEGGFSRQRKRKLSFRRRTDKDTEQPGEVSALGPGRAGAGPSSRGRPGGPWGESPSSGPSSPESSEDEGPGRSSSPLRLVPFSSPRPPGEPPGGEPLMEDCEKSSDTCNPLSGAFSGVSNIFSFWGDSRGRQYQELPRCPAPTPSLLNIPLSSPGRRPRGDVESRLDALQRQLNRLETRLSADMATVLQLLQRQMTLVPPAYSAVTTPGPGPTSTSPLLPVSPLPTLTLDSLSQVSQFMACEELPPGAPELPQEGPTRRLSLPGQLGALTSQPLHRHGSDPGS

[11] = test system: Rattus norvegicus; experiment: Effect on sleep-awake pattern in CD IGS rat model of insomnia assessed as latency to 1 min NREM sleep at 60 mg/kg, po by EEG/EMG study relative to vehicle control; type: functional
[12] = molecular target: T2, 5-hydroxytryptamine receptor 2A (Homo sapiens, UniProt P28223); experiment: Displacement of [3H]ketanserin from human 5HT2A receptor expressed in HEK293 Flp-In cells at 10 uM by liquid scintillation counting; type: cell-based
T2 sequence (P28223 whole entry): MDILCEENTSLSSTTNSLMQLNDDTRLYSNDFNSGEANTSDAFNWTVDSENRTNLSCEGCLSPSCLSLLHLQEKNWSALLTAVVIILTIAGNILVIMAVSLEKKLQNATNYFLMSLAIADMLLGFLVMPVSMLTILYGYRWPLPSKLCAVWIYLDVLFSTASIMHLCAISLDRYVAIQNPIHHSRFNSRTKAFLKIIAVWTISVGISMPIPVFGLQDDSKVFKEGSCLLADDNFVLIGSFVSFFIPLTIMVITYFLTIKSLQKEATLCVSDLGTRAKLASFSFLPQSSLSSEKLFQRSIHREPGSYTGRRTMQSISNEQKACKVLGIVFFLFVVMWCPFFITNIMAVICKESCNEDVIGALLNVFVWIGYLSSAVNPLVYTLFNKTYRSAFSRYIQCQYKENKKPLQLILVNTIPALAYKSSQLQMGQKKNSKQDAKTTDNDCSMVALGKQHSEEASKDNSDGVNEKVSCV

[13] = test system: Rattus norvegicus; experiment: Increase in REM sleep in CD IGS rat model of insomnia at 30 mg/kg, po after 4 hrs by EEG/EMG study relative to vehicle control; type: functional
[14] = test system: Rattus norvegicus; experiment: Effect on sleep-awake pattern in CD IGS rat model of insomnia assessed as latency to 20 secs REM sleep at 30 mg/kg, po by EEG/EMG study relative to vehicle control; type: functional
[15] = test system: Rattus norvegicus; experiment: Increase in NREM sleep in CD IGS rat model of insomnia at 30 mg/kg, po after 4 hrs by EEG/EMG study relative to vehicle control; type: functional
[16] = test system: Rattus norvegicus; experiment: Effect on sleep-awake pattern in CD IGS rat model of insomnia assessed as latency to 1 min NREM sleep at 30 mg/kg, po by EEG/EMG study relative to vehicle control; type: functional
[17] = Systemic clearance in rat by LC-MS-MS analysis; settings: human, in vivo
[18] = Drug level in rat brain at 30 mg/kg after 4 hrs by LC-MS-MS analysis; type: ADME, organism-based; design: dose 30 mg/kg; settings: read-out: Drug uptake
[19] = test system: Cynomolgus monkey; experiment: Cardiotoxicity in conscious cynomolgus monkey assessed as decrease in heart rate up to 200 mg/kg administered as escalated dose with 1 week washout period between doses by telemetry study; type: toxicity, organism-based, Macaca fascicularis; design: dose 200 mg/kg; scale not given: the % may be the effect or the level left; settings: in vivo, 168 h
[20] = Drug level in rat brain at 30 mg/kg after 1 hr by LC-MS-MS analysis; type: ADME, organism-based; design: dose 30 mg/kg; settings: read-out: Drug uptake
[21] = Plasma concentration in rat at 30 mg/kg, po after 1 hr
[22] = in vitro; settings: rat, liver microsomes
[23] = molecular target: Muscarinic acetylcholine receptor M3 (Homo sapiens, UniProt P20309); experiment: Displacement of [3H]N-methylscopolamine from human muscarinic M3 receptor expressed in CHO Flp-In cells by liquid scintillation counting; type: cell-based
Sequence of Muscarinic acetylcholine receptor M3 (P20309 whole entry): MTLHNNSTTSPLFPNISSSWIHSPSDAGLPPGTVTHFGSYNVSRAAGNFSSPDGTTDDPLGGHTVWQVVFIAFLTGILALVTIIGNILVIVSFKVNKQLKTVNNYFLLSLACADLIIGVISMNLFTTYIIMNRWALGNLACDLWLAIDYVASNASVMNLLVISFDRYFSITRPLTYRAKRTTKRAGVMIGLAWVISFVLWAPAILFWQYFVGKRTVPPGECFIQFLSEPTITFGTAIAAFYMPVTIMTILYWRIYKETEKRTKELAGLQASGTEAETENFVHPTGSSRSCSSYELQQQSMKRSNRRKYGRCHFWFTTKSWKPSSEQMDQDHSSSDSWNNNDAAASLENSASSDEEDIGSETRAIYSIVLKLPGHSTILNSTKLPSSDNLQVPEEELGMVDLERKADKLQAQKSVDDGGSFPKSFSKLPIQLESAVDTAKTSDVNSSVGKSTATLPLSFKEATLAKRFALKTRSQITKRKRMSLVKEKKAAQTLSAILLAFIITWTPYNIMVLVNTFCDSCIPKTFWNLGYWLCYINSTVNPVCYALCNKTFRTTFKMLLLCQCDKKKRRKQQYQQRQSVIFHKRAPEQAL

[24] = molecular target: T2, 5-hydroxytryptamine receptor 2A; experiment: Displacement of [3H]ketanserin from human 5HT2A receptor expressed in HEK293 Flp-In cells by liquid scintillation counting; type: cell-based
[25] = Elimination half life in human at 50 mg, po; type: ADME, organism-based; settings: in vivo, read-out: beta t1/2 (converted)
[26] = Half life in human; type: ADME, organism-based; settings: in vivo

Row | SMILES | Activity [1] | IC50 [2] | Activity [3] | Ki [5] | Activity [6] | Ki [7] | Activity [8] | CLhep predicted at 1 h, 1 µM [9] | Activity [11] | Activity [12] | Ki [24] | other results
1 | C[C@H](C1=C(CCN(C)C)Cc2ccccc21)c1ccccn1 | 126% | 32500 nM | inactive | 0.4 nM | 132% | 2400 nM | 136% | 7 mL/min/kg | 134% | 33% |  | inhibition (INH) [4]: Not Active; IC50 [10]: 900 nM
2 | CN(C)CCc1sc2ccccc2c1Cc1cnccn1 |  |  | inactive | 75 nM |  |  |  |  |  |  |  | 
3 | Cc1ccc(-c2nc3ccc(C)cn3c2CC(=O)N(C)C)cc1 [ZOLPIDEM] |  |  |  |  |  |  |  |  |  |  |  | Activity [13]: 42%; Activity [14]: 199%; Activity [15]: 220%; Activity [16]: 18%
4 | C[C@@H](c1ccccn1)c1c(CCN(C)C)sc2ccccc12 |  | 28200 nM | inactive | 4 nM |  | 5300 nM |  | 10 mL/min/kg |  | 31% |  | Activity [13]: 167%; clearance [17]: 5.2 mL/min/kg; concentration at 4 h [18]: 23 ng/mL; Activity [19]: 16%; Activity [14]: 138%; Activity [15]: 142%; concentration at 1 h [20]: 29 ng/mL; concentration at 1 h [21]: 4 ng/mL; IC50 [10]: 1400 nM; CLint scaled at 1 h, 1 µM [22]: 2300 mL/min/kg; Activity [16]: 124%
5 | C[C@@H](c1ccccn1)c1c(CCN(C)C)oc2ccccc12 |  |  | inactive | 0.9 nM |  | 320 nM |  | 10 mL/min/kg |  | 62% |  | Ki [23]: 76 nM
6 | CN(C)CCC1=C(Cc2cnccn2)c2ccccc2C1 | 113% |  | inactive |  | 159% |  | 92% |  | 79% |  | 600 nM | 
7 | CN(C)CCC1=C(Cc2ccc(F)cc2)c2ccccc2C1 |  | 300 nM | inactive | 0.6 nM |  |  |  | 13 mL/min/kg |  |  | 140 nM | 
8 | CC(C1=C(CCN(C)C)Cc2ccccc21)c1ccccn1 (racemic) |  |  |  |  |  |  |  |  |  |  |  | half-life [25]: 18 h; half-life [26]: 5 h
9 | C[C@H](C1=C(CCN(C)C)Cc2ccccc21)c1cnccn1 | 129% |  | inactive |  | 145% |  | 104% |  | 109% | 32% |  | 
10 | CN(C)CCc1sc2ccccc2c1Cc1ccc(F)cc1 |  | 200 nM | inactive | 11 nM |  | 2000 nM |  | 16 mL/min/kg |  |  | 90 nM | 
